Like-named read-outs stand apart in the source and are kept apart here.
Legend:
LS1034 = test: Cell proliferation assay, LS1034; format: cell-based; details: Homo sapiens, LS-1034; LS1034, PF-309 alone, 72 h; 1 uM was the maximum concentration used
Method: (§1) Cytotoxic/proliferation effects were determined using the sulforhodamine B (SRB) assay (Skehan et al., [1990]) or by resazurin. Briefly, cells in logarithmic growth phase were transferred to 96 well flat bottom plates with lids. One-hundred microliter cell suspensions containing 1500–5000 viable cells were plated into each well and incubated overnight prior to exposure with increasing concentrations of PF-309 for 3–5 days, dependent upon cell type. Media was removed and cells were fixed with cold 10% trichloroacetic acid for 30 min at 4°C. Cells were then washed with water and stained with 0.4% SRB (Fisher Sci., Pittsburgh, PA, USA) for 30 min at room temperature, washed again with 1% acetic acid, followed by stain solubilization with 10 mM tris at room temperature. The plate was then read on a plate reader (Biotek Synergy 2, Winooski, VT, USA) set at an absorbance wavelength of 565 nm. Cell proliferation curves were derived from the raw absorbance (OD) data.
(§2) Since PF-309 appeared to be a strong P-gp and BCRP substrates, we sought to evaluate if the transporters influenced sensitivity in vitro. We evaluated the sensitivity of CRC cell lines to PF-309 treatment in a panel of 27 lines. Cells were exposed to PF-309 at a range of concentrations for 72 h and cell content measured by SRB assay (see Pitts et al., [2013]). […]

DLD1 Scr = test: Proliferation, control shRNA, DLD1 Scr; format: cell-based; details: Homo sapiens, DLD-1; DLD1 Scr:50, control shRNA
Method: as §1
The pGIPZ Pgp-specific shRNA expression cassettes, along with control shRNA plasmids including the original pGIPZ vector were purchased from Open Biosystems (Birmingham, AL, USA). […] Successful knockdown of specific genes and gene products was confirmed by semi-quantitative RT-PCR and immunoblotting with specific antibodies. […]

SW480 = test: Cell proliferation assay, SW480; format: cell-based; details: Homo sapiens; SW480, 72 h, SRB assay
Method: as §1, §2

DLD-1 = test: Cell proliferation assay, DLD-1; format: cell-based, human
Method: as §1
In a subset of CRC cell lines, western blotting, and rhodamine efflux was used to verify the expression and function of P-gp. Consistent with the gene expression data, the sensitive cell lines, RKO, HCT116, and Colo205 show no P-gp expression and no functional P-gp, and the resistant lines, SW948, HCT15, and SW1116 express functional P-gp (Figures 3A,B). […]

CUCRC026 CRC PDTX model = test: Patient derived tumor xenograft efficacy, CUCRC026; format: in vivo, mice; details: 25 mg/kg orally twice daily, 22–56 days, end of study tumor volumes
Method: (§3) For patient tumor xenografts, surgical specimens of patients undergoing either removal of a primary or metastatic tumor at the University of Colorado Hospital are implanted subcutaneously into five mice for each patient with a 10-G trochar. After a subsequent growth and passage in mice, tumors are excised, and expanded into cohorts for treatment (n = 6–15 per group). Mice were treated with PF-309 or vehicle (0.5% methylcellulose) for 22–56 days (until control tumor volume reach ∼1500 mm^3) twice daily (BID) by oral gavage (PO). Monitoring of mice and measurements of tumors were conducted as described above. % Growth Inhibition= (average control volume−average treated volume)/average control volume×100% In addition to the cell line xenografts, we also treated 12 different patient derived tumor xenograft (PDTX) CRC models with PF-309 (Figure 6). We were unable to assess how ABCB1 gene expression correlated with efficacy in these models. The PDTX models are propagated in vivo, are not immortalized, and are not grown in in vitro culture. […] Tumor and plasma sample pairs were collected from animals at the end of study for eight tumor models (three cell line xenografts and five PDTX models) and concentrations of PF-309 were measured. […]

CUCRC036 CRC PDTX model = test: Patient derived tumor xenograft efficacy, CUCRC036; format: in vivo, mice; details: 25 mg/kg orally twice daily, 22–56 days, end of study tumor volumes
Method: as §3

HCT15 = test: Cell proliferation assay, HCT15; format: cell-based; details: Homo sapiens, HCT-15
Method: as §1, §2

SW48 cell line xenograft = test: CRC cell line xenograft efficacy, SW48; format: in vivo, mice; details: 25 mg/kg orally twice daily, 14–28 days, end of study tumor volumes
Method: For cell line xenografts, CRC cells were harvested in exponential phase growth and resuspended in a 1:1 mixture of serum-free RPMI 1640 and Matrigel (BD Biosciences). Five to ten million cells per mouse were injected subcutaneously into the flank using a 23-gauge needle. Mice were monitored daily for signs of toxicity and were weighed twice weekly. Tumor size was evaluated twice per week by caliper measurements using the following formula: tumor volume = length × width^2 × 0.52. When tumors reached 200–300 mm^3 mice were randomized into two groups with at least 10 tumors per group. Mice were then treated for 14–28 days (until control tumor volume reach ∼1500 mm^3) with either vehicle control (0.5% methylcellulose), or PF-3758309 (25 mg/kg) twice daily by oral gavage.
Human tumor xenograft models were used to evaluate the efficacy of PF-309 in vivo. Eleven different CRC cell line tumor xenografts were treated with 25 mg/kg PF-309 twice daily by oral gavage for 14–28 days (until control tumor volumes reached ∼1500 mm^3). Tumor volumes were measured throughout the study and the % growth inhibition was calculated from the average end of study tumor volumes by:
% Growth Inhibition= (average control volume−average treated volume)/average control volume×100%

Question: For Cc1nc(Nc2n[nH]c3c2CN(C(=O)N[C@H](CN(C)C)c2ccccc2)C3(C)C)c2sccc2n1 [PF-309], which IC50 (LS1034) is on record?
Answer: > 1000 nM

Question: And the IC50 (DLD1 Scr)?
Answer: 103 nM

Question: What about the IC50 (SW480) of the same compound?
Answer: 10.1 ± 2.5 nM

Question: And the “shift in the IC50 by shRNA knockdown of P-gp” value (DLD-1; DLD-1 cells, P-gp knockdown vs control shRNA)?
Answer: four to six fold

Question: What about the IC50 (DLD-1; Homo sapiens, DLD-1, PF-309 alone, 72 h) of the same compound?
Answer: 278 nM

Question: And the “% Growth inhibition” value (CUCRC026 CRC PDTX model)?
Answer: 30%

Question: And the “% Growth inhibition” value (CUCRC036 CRC PDTX model)?
Answer: 35%

Question: What about the IC50 (HCT15; HCT15, 72 h, SRB assay, read-out: IC50) of the same compound?
Answer: > 1000 nM

Question: What about the IC50 (HCT15; HCT15, PF-309 alone, 72 h (Table 2), read-out: PF-309 IC50) of the same compound?
Answer: 780 nM

Question: And the “% Growth inhibition” value (SW48 cell line xenograft)?
Answer: 45%

— paper PMC3605511, “Tumor P-Glycoprotein Correlates with Efficacy of PF-3758309 in in vitro and in vivo Models of Colorectal Cancer” (Frontiers in Pharmacology, 2013)
